Consider two compounds from article PMC10545747, “Development of cyclopeptide inhibitors of cGAS targeting protein-DNA interaction and phase separation” (Nature Communications, 2023).

Several values for one entry are separate records, joined by “and”; a condition that tells them apart may be missing. Equal values may be shown once. Square brackets hold non-standard residues; d marks the D form. Peptide text beside a SMILES is read from it.

What all share (format): cell-based, human
For one test, the system named is THP1 cells. Put plainly: Immunoblotting of phosphorylated IRF3/TBK1 and nuclear IRF3. As to the method:
Total cell lysates were prepared in RIPA lysis buffer (Beyotime Biotechnology) supplemented with 1 mM PMSF and 1× protease inhibitor cocktail (Yeasen), and nuclear protein was extracted by nuclear protein extraction kit (Solarbio) in accordance with the manufacturer’s instructions. The samples were separated by SDS-PAGE and transferred to the PVDF membrane (Millipore). The membranes were incubated with the indicated primary antibodies at 4 °C overnight and then incubated with an HRP-conjugated anti-rabbit IgG antibody (Cell Signaling, Cat# 7074, 1:5000) or anti-mouse IgG antibody (Cell Signaling, Cat# 7076, 1:5000) at room temperature for 1 h. The signal was visualized by using the NcmECL Ultra kit (New Cell & Molecular Biotech) and then was exposed by using MiniChemi (SageCreation).

In another test the test system is THP1-Lucia ISG cells. The test can be described thus: Luciferase reporter assay, dsDNA stimulation. More on the design: Type I interferon response, luciferase activity, Fig. 1c / luciferase activity, Fig. 2a: scale not given here. From the text:
To screen direct cGAS inhibitors targeting protein-DNA interface from our developed focused library of macrocyclic peptides, we applied an RNA-based fluorescent biosensor for 2’,3’-cGAMP to detect cGAS activity in vitro (Supplementary Fig. 1a)[49]. The formation of 2’,3’-cGAMP from ATP and GTP was catalyzed by recombinant human cGAS enzyme (hcGAS-ΔN, residues 147–522, Supplementary Fig. 1b) in the presence of ISD (interferon stimulatory DNA, a 45-bp dsDNA), which was readily quantified by the RNA-based fluorescent biosensor and was further confirmed by ion exchange chromatography (Supplementary Fig. 1c). […] Subsequently, a total of 90 macrocyclic peptides were screened at a concentration of 20 μM (Fig. 1a and Supplementary Fig. 1e), and 4 hits (XQ2, XQ8, XQ19, and XQ46) were obtained for further testing at a cut-off of 40% inhibition (Supplementary Table 1). To evaluate the inhibitory effect of the hits against cGAS in cells, we employed real-time quantitative PCR (qPCR) to examine mRNA levels of IFNΒ1 in THP1 cells. The reported cGAS inhibitor RU.521 was used as the positive control, and the non-active peptide XQ28 in the screening assay was used as the negative control. […] The inhibition of cGAS by these hits was further confirmed in the reporter cell line THP1-Lucia ISG (Invivogen) that expresses secreted luciferase induced by an IRF3-inducible ISG54 promoter (Fig. 1c). The discrepancy between the inhibitory effect of the hits in protein and cellular assays may be attributed to their different cellular permeability.
THP1-Lucia ISG cells (Invivogen) were seeded into a 96-well plate and incubated with RU.521 (Invivogen) or XQ2 for the indicated time, and then transfected with dsDNA by lipofectamine 2000 (Invitrogen) or infected by HSV-1 with the indicated titer for 24 h. The supernatant was collected and 50 μL QUANTI-Luc Luciferase reagent (Invivogen) was added to 20 μL supernatants per well, and luciferase luminescence was detected by a microplate reader (BioTek Synergy H1) immediately.

The next test has as its system Jurkat cells. The test can be described thus: Flow cytometry of apoptosis, Annexin V and PI staining. The conditions noted are these: XQ2B +. The procedure:
Cell death was measured by Annexin V-FITC/PI Apoptosis Kit (Elabscience) according to the manufacturer’s instructions. Data were acquired on an Attune NxT (ThermoFisher) flow cytometer and analyzed in FlowJo.
Supplementary Fig. 8. XQ2B inhibits cGAS induced autophagy and cell death. (a) L929 cells were pretreated […]
measured by CCK8 assay. p = 0.0022. (c, d) Jurkat cells were treated with DMSO or XQ2B (5 μM), followed by stimulation with ISD (2ug/ml) for 4 h. Flow cytometric analysis of apoptosis assessed by Annexin V and PI staining.
Analysis strategy shown was used to determine the Annexin V+ or PI+ population (c). Numbers in quadrants present […]
percentages (d). p = 0.0006. […]
by HSV-1 infection for indicated titer and periods. Induction of HSV-1(UL5) mRNA was measured by qPCR. p = 0.0018 (1×10^4 pfu); p < 0.0001 (2×10^4 pfu). Data are representative of three independent experiments with similar results in (a), or three independent experiments in (b, d, e). (Data are presented as mean ± SD, n = 3 independent […]
are provided as a Source Data file.

`CC(C)C[C@@H]1NC(=O)[C@H](CCCNC(=N)N)NC(=O)[C@H](C(C)C)NC(=O)[C@@H]2CCCN2C(=O)[C@@H](Cc2ccccc2)NC(=O)[C@H](CC(C)C)NC(=O)[C@H](CCCNC(=N)N)NC(=O)[C@H](C(C)C)NC(=O)[C@H](C)NC(=O)[C@@H](Cc2ccccc2)NC1=O` [XQ2, Cyclo (LfAVRLfPVR)] (cyclo(L[dF]AVRL[dF]PVR)): in the test on THP1 cells (ISD or HSV-1, 10 μM), the “nuclear translocation of IRF-3, fractionation immunoblot” value is “substantially suppressed the nuclear translocation of IRF-3 induced by ISD and HSV-1”. In the test on THP1 cells (ISD/dsDNA 6 h), the “phosphorylation of TBK-1 and IRF-3” value is “markedly decreased phosphorylation of TBK-1 and IRF-3 induced by ISD”. For the same compound, the “dsDNA-induced luciferase reporter signal” value in the test on THP1-Lucia ISG cells is listed as “inhibited dsDNA-induced signaling in THP1 cells in a dose-dependent manner with an inhibitory activity comparable to that of RU.521”. Further, the “luciferase activity, Fig. 2a” value is 0.1339 and 0.107 and 0.1281 with THP1-Lucia ISG cells (Mock (no dsDNA), compound 10 μM, replicate values); 0.09057 and 0.08624 and 0.1133 in the test on THP1-Lucia ISG cells (Mock, 1.25 μM); 0.08177 and 0.0892 and 0.09714 in the test with THP1-Lucia ISG cells (Mock, 2.5 μM); 0.1148 and 0.09368 and 0.09512 in the test with THP1-Lucia ISG cells (Mock, 5 μM); 0.7893 and 0.9483 and 1.24 in the test with THP1-Lucia ISG cells (dsDNA 24 h, 1.25 μM); 1.035 and 1.02 and 0.8001 in the test with THP1-Lucia ISG cells (dsDNA 24 h, 2.5 μM). In addition, the “luciferase activity, Fig. 2a” value in the test with THP1-Lucia ISG cells (dsDNA 24 h, 5 μM) is 0.8667 and 0.7097 and 0.78; in the test with THP1-Lucia ISG cells (dsDNA 24 h, compound 10 μM, 3 h pretreatment, replicate values), 0.4481 and 0.3329 and 0.2712. In the test on THP1-Lucia ISG cells (dsDNA 24 h, replicate values), the “Type I interferon response, luciferase activity, Fig. 1c” value was 0.5575 and 0.4465 and 0.4391.
For the compound `CC(C)C[C@@H]1NC(=O)[C@H](CCCNC(=N)N)NC(=O)[C@H](C(C)C)NC(=O)[C@@H]2CCCN2C(=O)[C@@H](Cc2ccccc2)NC(=O)[C@H](CC(C)C)NC(=O)[C@H](CCCNC(=N)N)NC(=O)[C@H]([C@@H](C)O)NC(=O)[C@H](C)NC(=O)[C@@H](Cc2ccccc2)NC1=O` [XQ2B] (cyclo([dF]ATRL[dF]PVRL)), the “Induced cell death(%) (Fig. S8d)” value in the test with Jurkat cells (ISD +) was 18.8% and 19.1% and 18.5%; in the test on Jurkat cells (ISD -), 3.9% and 3.8%.
